Source: ChEMBL document CHEMBL1138649, “Urea derivatives of STI571 as inhibitors of Bcr-Abl and PDGFR kinases” (Bioorg Med Chem Lett, 2004)

What was measured:
[1] = Inhibitory concentration required to inhibit PDGFR kinase was determined
[2] = molecular target: Tyrosine-protein kinase ABL1 (Homo sapiens, UniProt P00519); test: Inhibitory concentration required to inhibit Abl tyrosine kinase
[3] = molecular target: T1, Breakpoint cluster region protein (Homo sapiens, UniProt P11274); test: Inhibitory concentration required to inhibit Bcr-Abl tyrosine kinase
T1 sequence (P11274 whole entry): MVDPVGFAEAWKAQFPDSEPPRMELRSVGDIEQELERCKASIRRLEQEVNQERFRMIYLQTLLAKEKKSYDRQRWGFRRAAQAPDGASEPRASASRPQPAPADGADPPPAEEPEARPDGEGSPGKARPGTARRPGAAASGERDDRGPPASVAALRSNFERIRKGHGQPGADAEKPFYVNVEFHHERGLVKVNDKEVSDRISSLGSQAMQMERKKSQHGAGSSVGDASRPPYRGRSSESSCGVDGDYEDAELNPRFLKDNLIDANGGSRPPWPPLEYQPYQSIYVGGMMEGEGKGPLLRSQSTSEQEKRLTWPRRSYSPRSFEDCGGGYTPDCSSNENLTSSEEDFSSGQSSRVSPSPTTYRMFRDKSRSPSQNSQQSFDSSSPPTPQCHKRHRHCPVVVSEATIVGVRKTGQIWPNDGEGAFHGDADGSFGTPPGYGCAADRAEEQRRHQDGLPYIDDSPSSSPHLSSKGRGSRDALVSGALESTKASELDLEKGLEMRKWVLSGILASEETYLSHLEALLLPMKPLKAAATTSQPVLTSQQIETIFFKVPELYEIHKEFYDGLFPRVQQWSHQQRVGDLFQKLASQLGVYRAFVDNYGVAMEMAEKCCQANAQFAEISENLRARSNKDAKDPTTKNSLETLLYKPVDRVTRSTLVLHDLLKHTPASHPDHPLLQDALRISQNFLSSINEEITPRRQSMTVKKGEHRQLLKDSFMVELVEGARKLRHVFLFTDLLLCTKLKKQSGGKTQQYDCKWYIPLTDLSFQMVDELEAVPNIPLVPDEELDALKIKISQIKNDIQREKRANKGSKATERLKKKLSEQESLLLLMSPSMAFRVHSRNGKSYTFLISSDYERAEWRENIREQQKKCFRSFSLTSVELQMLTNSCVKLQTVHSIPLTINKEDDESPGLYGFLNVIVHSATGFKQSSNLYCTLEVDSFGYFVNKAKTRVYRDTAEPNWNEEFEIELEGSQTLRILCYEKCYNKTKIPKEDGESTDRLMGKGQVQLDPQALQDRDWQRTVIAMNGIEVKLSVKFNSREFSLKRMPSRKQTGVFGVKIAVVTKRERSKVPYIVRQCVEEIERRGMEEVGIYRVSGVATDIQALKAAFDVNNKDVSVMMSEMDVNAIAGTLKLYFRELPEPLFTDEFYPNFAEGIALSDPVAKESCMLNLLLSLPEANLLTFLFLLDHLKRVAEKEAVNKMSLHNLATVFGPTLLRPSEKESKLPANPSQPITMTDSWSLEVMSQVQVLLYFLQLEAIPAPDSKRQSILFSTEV

[4] = Plasma concentration after 120 minutes gavage was determined in mice after 20 mg/kg oral administration of the compound; assay type: ADME, organism-based; set-up: dose 20 mg/kg, route oral; details: mouse, read-out: C120
[5] = Maximum plasma concentration time in minutes was determined in mice after 20 mg/kg oral administration of the compound; assay type: ADME, organism-based; set-up: dose 20 mg/kg, route oral; details: mouse
[6] = Maximum plasma concentration was determined in mice after 20 mg/kg oral administration of the compound; assay type: ADME, organism-based; set-up: dose 20 mg/kg, route oral; details: mouse

Chain of Tyrosine-protein kinase ABL1 (P00519 whole entry): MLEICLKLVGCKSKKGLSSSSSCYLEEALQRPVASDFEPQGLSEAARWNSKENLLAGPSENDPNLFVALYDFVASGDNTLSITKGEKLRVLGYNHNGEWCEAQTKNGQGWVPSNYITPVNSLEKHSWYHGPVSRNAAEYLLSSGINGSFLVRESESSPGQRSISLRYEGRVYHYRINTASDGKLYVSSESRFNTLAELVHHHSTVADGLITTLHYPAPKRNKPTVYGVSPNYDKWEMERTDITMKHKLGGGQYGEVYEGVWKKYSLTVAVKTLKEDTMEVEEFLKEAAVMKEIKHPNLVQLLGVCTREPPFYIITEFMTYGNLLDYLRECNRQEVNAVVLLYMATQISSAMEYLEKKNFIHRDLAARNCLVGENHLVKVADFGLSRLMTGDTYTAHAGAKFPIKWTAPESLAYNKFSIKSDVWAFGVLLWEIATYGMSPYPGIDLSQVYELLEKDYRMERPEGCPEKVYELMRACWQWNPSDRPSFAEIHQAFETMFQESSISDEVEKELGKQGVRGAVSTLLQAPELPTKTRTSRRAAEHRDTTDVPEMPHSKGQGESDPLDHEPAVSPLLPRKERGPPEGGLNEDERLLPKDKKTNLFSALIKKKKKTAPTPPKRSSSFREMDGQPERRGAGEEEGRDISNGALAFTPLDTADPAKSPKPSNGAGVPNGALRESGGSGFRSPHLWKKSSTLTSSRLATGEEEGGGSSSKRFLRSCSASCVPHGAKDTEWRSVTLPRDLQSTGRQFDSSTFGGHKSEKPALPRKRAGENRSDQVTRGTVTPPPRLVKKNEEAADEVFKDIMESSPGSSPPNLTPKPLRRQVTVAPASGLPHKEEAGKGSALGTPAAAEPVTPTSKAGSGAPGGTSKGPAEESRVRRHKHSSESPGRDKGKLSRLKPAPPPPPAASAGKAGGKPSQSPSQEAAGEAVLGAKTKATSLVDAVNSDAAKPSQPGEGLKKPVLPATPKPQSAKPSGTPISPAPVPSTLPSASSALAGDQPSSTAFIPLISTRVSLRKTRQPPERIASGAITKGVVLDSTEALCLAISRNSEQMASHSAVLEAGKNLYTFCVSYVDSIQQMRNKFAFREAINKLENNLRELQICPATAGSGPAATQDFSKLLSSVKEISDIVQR

Row | SMILES | IC50 [1] | IC50 [2] | also measured
1 | Cc1ccc(NC(=O)N2CCN(Cc3ccncc3)CC2)cc1Nc1nccc(-c2cccnc2)n1 | 256 nM | – | –
2 | Cc1ccc(NC(=O)Nc2ccc(N(C)C)cc2)cc1Nc1nccc(-c2cccnc2)n1 | 1730 nM | > 5000 nM | IC50 ([3]; read-out: IC50): > 10000 nM
3 | Cc1ccc(NC(=O)Nc2cccc(N3CCCC3)c2)cc1Nc1nccc(-c2cccnc2)n1 | > 2500 nM | – | –
4 | Cc1ccc(NC(=O)N(C)CCCO)cc1Nc1nccc(-c2cccnc2)n1 | > 3000 nM | – | –
5 | CCN(CC)c1ccc(NC(=O)Nc2ccc(C)c(Nc3nccc(-c4cccnc4)n3)c2)cc1 | 2020 nM | > 3400 nM | IC50 ([3]; read-out: IC50): > 10000 nM
6 | Cc1ccc(NC(=O)Nc2cccc(CN3CCN(C)CC3)c2)cc1Nc1nccc(-c2cccnc2)n1 | 192 nM | – | –
7 | Cc1ccc(NC(=O)Nc2cccc(Cl)c2)cc1Nc1nccc(-c2cccnc2)n1 | 17 nM | 175 nM | IC50 ([3]; read-out: IC50): 1000 nM
8 | Cc1ccc(NC(=O)NCc2ccc(N(C)C)cc2)cc1Nc1nccc(-c2cccnc2)n1 | 236 nM | – | –
9 | Cc1ccc(NC(=O)Nc2cccnc2)cc1Nc1nccc(-c2cccnc2)n1 | 96 nM | 1000 nM | –
10 | Cc1ccc(NC(=O)Nc2cccc3[nH]ncc23)cc1Nc1nccc(-c2cccnc2)n1 | 375 nM | – | –
11 | Cc1ccc(NC(=O)N2CCC(N3CCCC3)CC2)cc1Nc1nccc(-c2cccnc2)n1 | 176 nM | – | –
12 | Cc1ccc(NC(=O)Nc2ccccc2CN(C)C2CCCCC2)cc1Nc1nccc(-c2cccnc2)n1 | 100 nM | 870 nM | –
13 | Cc1ccc(NC(=O)Nc2cccc3ncccc23)cc1Nc1nccc(-c2cccnc2)n1 | 64 nM | – | concentration at 2 h [4]: 50 nM; Tmax [5]: 30 min; Cmax [6]: 170 nM
14 | CCN(CC)c1cccc(NC(=O)Nc2ccc(C)c(Nc3nccc(-c4cccnc4)n3)c2)c1 | 47 nM | 280 nM | IC50 ([3]; read-out: IC50): > 1000 nM
15 | Cc1ccc(NC(=O)Nc2cccc(N(C)C)c2)cc1Nc1nccc(-c2cccnc2)n1 | 26 nM | 56 nM | concentration at 2 h [4]: 300 nM; Tmax [5]: 30 min; IC50 [3]: 573 nM; Cmax [6]: 1370 nM

More lines, main results first:

Row | IC50 [1] | IC50 [2] | SMILES | also measured
16 | > 3000 nM | – | Cc1ccc(NC(=O)NCCCO)cc1Nc1nccc(-c2cccnc2)n1 | –
17 | 414 nM | – | Cc1ccc(NC(=O)NCCCN2CCOCC2)cc1Nc1nccc(-c2cccnc2)n1 | –
18 | 63 nM | – | Cc1ccc(NC(=O)N2CCCCC2)cc1Nc1nccc(-c2cccnc2)n1 | concentration at 2 h [4]: 510 nM; Tmax [5]: 30 min; Cmax [6]: 4320 nM
19 | 132 nM | – | Cc1ccc(NC(=O)N2CCN(C)CC2)cc1Nc1nccc(-c2cccnc2)n1 | IC50 ([3]; read-out: IC50): > 5000 nM
20 | > 1300 nM | – | Cc1ccc(NC(=O)NCCCn2ccnc2)cc1Nc1nccc(-c2cccnc2)n1 | –
21 | > 1600 nM | – | Cc1ccc(NC(=O)NCCCN(C)C)cc1Nc1nccc(-c2cccnc2)n1 | –
22 | 655 nM | – | Cc1ccc(NC(=O)NCCN2CCCC2)cc1Nc1nccc(-c2cccnc2)n1 | IC50 ([3]; read-out: IC50): > 9000 nM
